Molecules are shown by their SMILES.

This passage reports melting point results from US8586566B2, “Unsaturated heterocyclic derivatives” (ARIAD Pharmaceuticals, Inc., priority 2005, dated 2013).

In turn, `Cc1ccc(NC(=O)c2cccc(C(F)(F)F)c2)cc1/C=C/n1cnc2c(Nc3ccc(P(C)(C)=O)cc3)ncnc21` [Example 3, (E)-N-(3-(2-(6-(4-(Dimethylphosphoryl)phenylamino)-9H-purin-9-yl)vinyl)-4-methylphenyl)-3-(trifluoromethyl)benzamide] gave a melting point of 230 to 234 °C.

The compound `Cc1ccc(C(=O)Nc2cccc(C(F)(F)F)c2)cc1/C=C/n1cnc2c(NC3CC3)ncnc21` [Example 5, (E)-3-(2-(6-(Cyclopropylamino)-9H-purin-9-yl)vinyl)-4-methyl-N-(3-(trifluoromethyl)phenyl)benzamide] showed a melting point of 201 °C.

The compound `Cc1ccc(NC(=O)Nc2cccc(C(F)(F)F)c2)cc1/C=C/n1cnc2c(NC3CC3)ncnc21` [Example 6, (E)-1-(3-(2-(6-(Cyclopropylamino)-9H-purin-9-yl)vinyl)-4-methylphenyl)-3-(3-(trifluoromethyl)phenyl)urea] had a melting point of 160 to 162 °C.

As usually defined, the melting point is the temperature, or range, at which the solid turns liquid.
